Data reported in publication PMC4764977, “AZD8797 is an allosteric non-competitive modulator of the human CX3CR1 receptor” (Biochemical Journal, 2016).

Legend:
[1] = biological target: T1, CX3CR1 (RPMI-8226 cells) (Homo sapiens, UniProt P49238); experiment: Dynamic mass redistribution (DMR), RPMI-8226 cells; assay type: cell-based
T1 construct: RPMI-8226 cells, a human B-lymphocyte cell line endogenously expressing human CX3CR1; CCL-155; host or cells: RPMI-8226
T1 sequence (P49238 1-355): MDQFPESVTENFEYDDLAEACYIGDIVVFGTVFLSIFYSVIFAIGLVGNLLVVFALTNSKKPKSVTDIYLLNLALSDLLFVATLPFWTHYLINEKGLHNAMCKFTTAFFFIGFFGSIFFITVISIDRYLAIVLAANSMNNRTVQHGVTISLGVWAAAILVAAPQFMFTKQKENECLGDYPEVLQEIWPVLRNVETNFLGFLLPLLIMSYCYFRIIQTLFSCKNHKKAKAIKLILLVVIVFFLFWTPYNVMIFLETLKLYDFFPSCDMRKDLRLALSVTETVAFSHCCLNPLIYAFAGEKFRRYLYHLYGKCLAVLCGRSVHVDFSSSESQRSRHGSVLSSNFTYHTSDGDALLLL
Method: CHO-hCX3CR1 cells were seeded at 12000 cells per well in DMEM with 10% FBS and RPMI-8226 cells at 8000 cells per well in RPMI 1640 medium with GlutaMAX and 20% FBS on 384-well fibronectin-coated EPIC™ biosensor plates (Corning) and cultured at 37°C for 24 h. At 18–24 h prior to compound treatment, the medium was replaced with serum-free medium with or without 100 ng·ml^−1 PTX. Cells were then washed with assay buffer (HBSS, 20 mM HEPES (pH 7.4) and 0.01% BSA) and allowed to equilibrate at 26°C for 1 h inside the EPIC™ plate reader. Following equilibration, a baseline scan was performed before adding AZD8797 or CX3CL1 using a CyBi-Well vario (CyBio). Dynamic mass redistribution (DMR) was then measured during a 60 min scan. As in the [^35S]GTPγS binding assay, the final DMSO concentration was held constant at 1%.

[2] = biological target: T2, CX3CR1 (Homo sapiens, UniProt P49238); parameters: method as in PMID 23516963; conditions: HEK293 cells co-transfected with Gqi5-protein; read-out: Ki, 125I-CX3CL1 competition assay; cited from earlier work
T2 sequence (P49238 1-355): T1 sequence (P49238 1-355)

[3] = biological target: T3, CX3CR1 (human whole blood leucocytes) (Homo sapiens, UniProt P49238); experiment: Cellix flow adhesion of hWB leucocytes to full-length CX3CL1; assay type: cell-based; conditions: flow 2.25 dyn·cm^−2, 60 min pre-incubation, n=2, read-out: IC50, prevention of capture (adhesion) of human blood leucocytes to CX3CL1
T3 construct: hWB with heparin as anti-coagulant was collected from healthy donors; from tissue; host or cells: human whole blood leucocytes (healthy volunteers)
T3 sequence (P49238 1-355): T1 sequence (P49238 1-355)
Method: Adhesion of a human B-lymphocyte cell line (RPMI-8226) or hWB leucocytes to full-length human CX3CL1 were monitored using a microfluidics Cellix VenaFlux platform and Vena 8 Biochips (Cellix). Each channel on the Vena 8 chip was coated with anti-His monoclonal antibody (R&D Systems) followed by His-tagged full-length CX3CL1 (R&D Systems) and blocked for non-specific binding (NSB) with BSA.
Cell preparations: RPMI-8226 cells were cultured in RPMI 1640 medium with GlutaMAX and 20% FBS (HyClone, Perbio). Before the experiment, cells were centrifuged at 320 g and resuspended to 5 ×10^6 cells·ml^−1 in RPMI 1640 with 1% FBS. hWB with heparin as anti-coagulant was collected from healthy donors and 5 μM DiOC6 was added. AZD8797 was diluted in a 3-fold series in DMSO starting at 3.3 or 30 μM and pre-incubated with RPMI-8226 cells for 15 min or whole blood for 60 min. DMSO concentration held constant for all AZD8797 concentrations (0.1% for the RPMI-8226 experiments and 0.3% for the whole blood experiments). […]
RPMI-8226 cells in RPMI 1640+1% FBS or whole blood were pumped through the channels at 0.5 dyn·cm^−2 and 2.25 dyn·cm^−2 respectively, for 3 min. Images for quantification were captured using a microscope. Cells adhering to channels were counted and the mean values across five images in each channel were used for calculating the concentration–response curves.

[4] = biological target: T2, CX3CR1; experiment: 125I-CX3CL1 competition binding, CHO-hCX3CR1 membranes; parameters: host or cells: CHO-K1
Method: Adherent CHO-K1 cells stably expressing human CX3CR1 (CHO-hCX3CR1) were grown in F12 medium with GlutaMAX, 10% FBS (Sigma–Aldrich) and 400 μg·ml^−1 geneticin and harvested at 80% confluency. Cells were washed in PBS and lysed with an Ultra-Turrax Homogenizer in 50 mM Tris/HCl (pH 7.4) and 1 mM EDTA with Complete™ protease inhibitor (Roche). […] Protein concentration was determined using the BCA method (Thermo Fisher Scientific). […] The filter plate was washed in ice-cold 25 mM HEPES (pH 7.4), 5 mM MgCl2, 1 mM CaCl2 and 500 mM NaCl and dried at 50°C for 1 h. Scintillation cocktail, Optiphase Supermix (PerkinElmer) was added to each well and the radioactivity was measured using a MicroBeta Trilux reader (PerkinElmer). All analysis and calculations were performed using GraphPad Prism 6.01. Functional and competition binding data were analysed using non-linear regression and fitted to a sigmoidal dose-response with variable slope according to the following equation: […] where Y is the amount of radioligand bound (cpm) or functional effect, Top denotes maximal asymptotic binding, and Bottom denotes the minimal asymptotic binding. XC50 is either the EC50 or the IC50 value, and X is the logarithm of the test compound concentration. Ki values were calculated from IC50 values using the Cheng–Prusoff equation: […]

[5] = tested on: CX3CR1; parameters: method as in PMID 24706865; conditions: cited from earlier work

In the case of `CC(C)C[C@H](CO)Nc1nc(S[C@@H](C)c2ccccc2)nc2nc(N)sc12` [AZD8797], the “Effect of PTX treatment on DMR signal” value ([1]; 100 ng·ml^−1 PTX) is given as “reduced”, the EC50 ([1]; n=3) is given as 410 nM and the Ki [2] is given as 4 nM. For the same molecule, the IC50 [3] was 330 nM, the “Lower potency than unlabelled CX3CL1 in displacing 125I-CX3CL1” value [4] was 1000 fold and the EC50 ([4]; 10 pM 125I-CX3CL1, n=3, read-out: EC50, displacement of 125I-CX3CL1) was 310 nM. The “Efficacy in rat model for multiple sclerosis” value [5] was “efficacy”.
